The values below come from US7521432B2, “Compositions and methods for identifying agents which regulate chromosomal stability, gene activation and aging” (priority 2000, dated 2009).

One data set addresses HST2 (Saccharomyces cerevisiae, UniProt P53686). Briefly: Rapid-reaction single turnover quench-flow analysis. The conditions noted are these: HST2, excess NAD^+, sub-stoichiometric [^3H]-AcLys14 H3, 22±3° C., pH 7.5, single exponential fit. The format is biochemical, yeast. An excerpt: FIGS. 5A-5C are a series of graphs showing that acetate is not a primary product of HST2-catalyzed histone/protein deacetylation. H3 peptide was stoichiometrically acetylated on Lys-14 by the histone acetyltransferase P/CAF and using [^3H]-AcCoA. Monoacetylated [^3H]-AcLys-14 H3 peptide was then purified by HPLC (FIG. 5A) and utilized as a substrate in the HST2 deacetylation reactions (FIG. 5B). Upon complete consumption of [^3H]-AcLys-14 H3 by HST2, all of the original [^3H] from H3 peptide was converted to a labeled product that eluted much later than authentic acetate. Conditions: 375 nM HST2, 175 μM NAD^+, 5 μM [^3H]-Lys14 AcH3, 1 mM DTT, for 1 min at 37° C. prior to quenching with TFA to a final concentration of 1%. FIG. 5C: Single turnover rapid quench-flow analysis. […] Quantification of [^3H]-AcLys14 H3 peptide (diamonds) and the [^3H]-acetate-adduct (circles) was accomplished by liquid scintillation counting of these species separated using reverse phase HPLC. […]
P/CAF [^3H]-monoacetylation of H3 peptide. […] Every mass spectrum was recorded as the sum of 20 consecutive spectra, each produced by a single pulse of photons. […] The amount of [^3H]-AcLys14 H3 peptide and [^3H]-O-acetyl ADP ribose was determined by liquid scintillation counting of these species separated on reverse phase HPLC. […]

In data set [1] the test system is Asterina miniata immature oocytes. Briefly: Microinjection into immature starfish oocytes, oocyte maturation (GVBD, polar body extrusion). The format is cell-based. To be noted: for effect on oocyte maturation as assessed by GVBD and polar body extrusion: microinjected, compared to control injections, text summary. As to the method: Asterina miniata gametes were collected and microinjections were performed as described previously (Carroll et al., 1999). Briefly, quantitative microinjection of Asterina miniata oocytes was performed at 16° C., using mercury-filled micropipets (Hiramoto, 1962; Kiehart, 1982; and see the information available at http://egg/uchc.edu/injection), allowing injection of precisely calibrated picoliter volumes into the oocytes and blastomeres. Injection volumes were 3% of the total cellular volume (for oocytes, 93 pL and for blastomeres, 47 pL). Buffer alone, purified O-acetylated ADP ribose or recombinant protein was injected into immature oocytes or one blastomere of a two cell stage embryo to a final concentration in the cytoplasm as indicated in the figure legends and Tables. 1-methyl adenine was from Sigma and was used at 10 μM.
Micro-injection assays were performed in starfish and sea urchin ooctyes. Historically echinoderm development has been a biochemically tractable and well-defined system to assess biological function of pruteins, bio-active compounds and for detailed analyses of the cell cycle. This system is attractive for its amenability to quantitative microinjection assays, cell cycle analyses, biochemical fractionation and microscopic imaging of eggs and early embryos. Initially, we hypothesized that if O-acetyl-ADP ribose produced by SIR2 was involved in SIR2's gene silencing ability, then micro-injection of O-acetyl-ADP ribose into a maturing oocyte should give rise to a phenotypic effect on the developing animal, perhaps through perturbations in normal gene expression patterns. Immature oocytes were micro-injected with HPLC-purified O-acetyl-ADP ribose or with a buffer control. The oocytes were allowed to mature by the addition of 1-methyladenine and assessed for developmental alterations.
Asterina miniata immature oocytes were microinjected with the amounts of O-acetyl ADP ribose in PBS. The maturation hormone 1-methyladenine was added (10 μM) 25-30 minutes post-injection. Oocytes were monitored for GVBD and polar body extrusion. […] The number of oocytes per treatment is given. Combined results of 3 separate experiments (3 batches of O-acetyl ADP ribose).
Asterina miniata immature oocytes were microinjected with the given enzymes in PBS. The maturation hormone 1-methyladenine was added (10 μM) 25-30 minutes post-injection. Oocytes were monitored for GVBD and polar body extrusion. […] The number of oocytes per treatment (n) is given. Data are from four separate batches of oocytes. All oocytes for a given treatment responded in the same way unless indicated otherwise (e.g. see 200 nM HST2 injection).

Setting [2] is: 0.2 mg/ml (0.32 mM) in cytoplasm.
Where [3] appears, read: 0.5 mg/ml (0.8 mM) in cytoplasm.
Setting [4] is: 1.0 mg/ml (1.6 mM) in cytoplasm.

Sequence of HST2 (P53686 whole entry): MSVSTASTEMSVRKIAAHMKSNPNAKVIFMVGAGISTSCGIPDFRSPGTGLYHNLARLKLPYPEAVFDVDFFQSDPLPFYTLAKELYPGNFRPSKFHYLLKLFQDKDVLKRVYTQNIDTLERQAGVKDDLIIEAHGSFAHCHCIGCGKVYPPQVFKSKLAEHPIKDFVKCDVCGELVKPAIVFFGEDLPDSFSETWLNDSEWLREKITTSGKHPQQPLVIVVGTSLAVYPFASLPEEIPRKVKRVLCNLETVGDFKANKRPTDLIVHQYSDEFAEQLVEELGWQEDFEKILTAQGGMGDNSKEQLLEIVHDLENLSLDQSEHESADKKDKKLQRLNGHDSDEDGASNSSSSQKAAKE

Take O-acetyl-ADP ribose: on HST2, the “rate constant of acetate-adduct formation” value was 2.3 ± 0.2 s⁻¹. Also, the “no effect (oocytes)” value in data set [1] (0.01 mg/ml (0.016 mM) in cytoplasm) was 8/8; in data set [1] (0.1 mg/ml (0.16 mM) in cytoplasm), 16/16; in data set [1] (setting [2]) it was 7/8; in data set [1] (3.0 mg/ml (5 mM) in cytoplasm, 1-methyladenine 10 μM) it was 2/3. Also, the “compete block (oocytes)” value in data set [1] (setting [2]) is recorded as 1/8; in data set [1] (setting [3]), 6/16; in data set [1] (setting [4]) it was 22/23; in data set [1] (1.7 mg/ml (3 mM) in cytoplasm), 6/6. For the same substance, the “1-2 hr delay (oocytes)” value in data set [1] (setting [3]) was 10/16; in data set [1] (setting [4]) it was 1/23. Further, the “immediate death (oocytes)” value in data set [1] (3.0 mg/ml (5 mM) in cytoplasm) is 1/3; in data set [1] (10 mg/ml (16 mM) in cytoplasm) it was 2/2. The “effect on apoptosis of unfertilized oocyte” value in data set [1] (apoptosis normally occurs after ~24 hrs if not fertilized) is “delayed apoptosis”. The “GV breakdown, polar body extrusion and apoptosis of injected oocytes” value in data set [1] (final 1 mg/mL, images 3 and 24 hr post hormone treatment, FIG. 9) is given as “did not undergo GV breakdown or polar body extrusion, nor did they undergo apoptosis”. In addition, the “effect on oocyte maturation as assessed by GVBD and polar body extrusion” value in data set [1] is recorded as “a delay in germinal vesicle breakdown (GVBD), or a complete block in oocyte maturation”; in data set [1] (listed as O-acetyl ADP ribose), “block oocyte maturation”. Further, the “concentration below which no effect was observed (dose-dependency)” value in data set [1] (oocyte maturation) is given as “below 0.32 mM”.
